Data: patent publication US4906623A, “3-Imidazolium cephalosporin derivatives” (Otsuka Kagaku Kabushiki Kaisha, priority 1985, dated 1990)
Values after ≈ are worked out from the molar mass of the structure shown. Read-outs that look alike come from different tables or passages of the source.

Key:
Experiment in all cases: in vitro anti-bacterial activity, two-fold agar plate dilution method
Type in all cases: cell-based
[1] = test system: Escherichia coli CSH(RE45); details: 37° C., 20 hours, read-out: MIC
Procedure: (§1) The agent for preventing and treating bacterial infections was tested for in vitro anti-bacterial activity by the following two-fold agar plate dilution method. Each test strain was incubated for 20 hours in a bouillon for measuring sensitivity to obtain a test culture (containing about […]). Portions of sensitivity measuring agar medium containing varying concentrations of the antibacterial agent were each innoculated with a 0.005 ml portion of the culture, followed by incubation at 37° C. for 20 hours. The minimum growth inhibitory concentration (MIC) in μg/ml was then determined.
(§2) MIC=minimum inhibitory concentration

[2] = test system: Escherichia coli NIHJ-JC2
Procedure: as §1, §2

Klebsiella pneumoniae = test system: Klebsiella pneumoniae
Procedure: as §1, §2

Proteus mirabilis = test system: Proteus mirabilis
Procedure: as §1, §2

Proteus vulgaris = test system: Proteus vulgaris
Procedure: as §1, §2

Pseudomonas aeruginosa = test system: Pseudomonas aeruginosa
Procedure: as §1, §2

Pseudomonas cepacia = details: Burkholderia cepacia, 37° C., 20 hours, read-out: MIC
Procedure: as §1, §2

Serratia marcescens = test system: Serratia marcescens
Procedure: as §1, §2

[3] = test system: Staphylococcus aureus 209P
Procedure: as §1, §2

[4] = NIHJJC2, Escherichia coli NIHJ-JC2, agar dilution, 37° C., 20 hours, read-out: MIC
[5] = agar dilution, 37° C., 20 hours, read-out: MIC
[6] = Staphylococcus aureus 209P, agar dilution, 37° C., 20 hours, read-out: MIC

Row | Structure (SMILES) | MIC [1] | MIC [2, 4] | MIC (Klebsiella pneumoniae; 20 h) | MIC (Proteus mirabilis; [5]) | MIC (Proteus vulgaris; [5]) | MIC (Pseudomonas aeruginosa; 20 h) | MIC (Pseudomonas cepacia) | MIC (Serratia marcescens; 20 h) | MIC ([3]; Staphylococcus aureus, 209P, 20 h) | MIC (Pseudomonas aeruginosa; [5]) | MIC (Serratia marcescens; [5]) | MIC [3, 6] | MIC (Proteus mirabilis; 20 h) | MIC (Proteus vulgaris; 20 h) | MIC (Klebsiella pneumoniae; [5]) | MIC ([2]; Escherichia coli, NIHJJC2, 20 h)
1 | Cn1c[n+](CC2=C(C(=O)[O-])N3C(=O)C(NC(=O)/C(=N\OC(C)(C)C(=O)O)c4csc(N)n4)C3SC2)c2ccccc21 (stereo not drawn) [L, 7-{2-(2-aminothiazole-4-yl)-2-[potassium(2,2-dimethylacetate)oxyimino]acetamide}-3-(benz-3-N-methyl-1-imidazoliomethyl)-3-cephem-4-carboxylate] | 0.2 µg/mL | 0.2 µg/mL | 0.78 µg/mL | 0.2 µg/mL | 0.2 µg/mL | 3.13 µg/mL | 6.25 µg/mL | 0.78 µg/mL | 1.56 µg/mL |  |  |  |  |  |  | 
2 | CC(C)(O/N=C(\C(=O)NC1C(=O)N2C(C(=O)[O-])=C(C[n+]3ccn(C4CCCCC4)c3)CSC12)c1csc(N)n1)C(=O)O (stereo not drawn) [N, 7-{2-(2-aminothiazole-4-yl)-2-[potassium(2,2-dimethylacetate)oxyimino]acetamide}-3-(3-cyclohexyl-1-imidazoliomethyl)-3-cephem-4-carboxylate] | 0.1 µg/mL | 0.2 µg/mL | 0.78 µg/mL | 0.2 µg/mL | 0.2 µg/mL |  | 25 µg/mL |  |  | 6.25 µg/mL | 1.56 µg/mL | 6.25 µg/mL |  |  |  | 
3 | CC(C)(O/N=C(\C(=O)NC1C(=O)N2C(C(=O)[O-])=C(C[n+]3ccn(-c4ccc(O)cc4)c3)CSC12)c1csc(N)n1)C(=O)O (stereo not drawn) [O, 7-{2-(2-aminothiazole-4-yl)-2-[potassium(2,2-dimethylacetate)oxyimino]acetamide}-3-[3-(4-hydroxyphenyl)-1-imidazoliomethyl]-3-cephem-4-carboxylate] | 0.1 µg/mL | 0.2 µg/mL | 0.78 µg/mL |  |  |  | 25 µg/mL | 0.78 µg/mL |  | 6.25 µg/mL |  | 6.25 µg/mL | 0.2 µg/mL | 0.1 µg/mL |  | 
4 | CC(C)(O/N=C(\C(=O)NC1C(=O)N2C(C(=O)[O-])=C(C[n+]3cn(Cc4ccccc4)c4ccccc43)CSC12)c1csc(N)n1)C(=O)O (stereo not drawn) [P, 7-{2-(2-aminothiazole-4-yl)-2-[potassium(2,2-dimethylacetate)oxyimino]acetamide}-3-(benz-3-N-benzyl-1-imidazoliomethyl)-3-cephem-4-carboxylate] | 1.56 µg/mL | 3.13 µg/mL |  |  |  |  | 50 µg/mL |  |  | 6.25 µg/mL | 6.25 µg/mL | 3.13 µg/mL | 3.13 µg/mL | 1.56 µg/mL | 6.25 µg/mL | 
5 | C#CCn1c[n+](CC2=C(C(=O)[O-])N3C(=O)C(NC(=O)/C(=N\OC(C)(C)C(=O)O)c4csc(N)n4)C3SC2)c2ccccc21 (stereo not drawn) [Q, 7-{2-(2-aminothiazole-4-yl)-2-[potassium(2,2-dimethylacetate)oxyimino]acetamide}-3-[benz-3-N-(2-propynyl)-1-imidazoliomethyl]-3-cephem-4-carboxylate] | 0.2 µg/mL | 0.2 µg/mL | 0.78 µg/mL |  |  | 3.13 µg/mL | 12.5 µg/mL | 0.78 µg/mL |  |  |  | 3.13 µg/mL | 0.39 µg/mL | 0.1 µg/mL |  | 
6 | C=C(C)Cn1c[n+](CC2=C(C(=O)[O-])N3C(=O)C(NC(=O)/C(=N\OC(C)(C)C(=O)O)c4csc(N)n4)C3SC2)c2ccccc21 (stereo not drawn) [R, 7-{2-(2-aminothiazole-4-yl)-2-[potassium(2,2-dimethylacetate)oxyimino]acetamide}-3-[benz-3-N-(2-methyl-2-propenyl)-1-imidazoliomethyl]-3-cephem-4-carboxylate] | 1.56 µg/mL | 0.78 µg/mL | 3.13 µg/mL |  |  |  | 25 µg/mL | 1.56 µg/mL |  | 12.5 µg/mL |  | 6.25 µg/mL | 3.13 µg/mL | 0.78 µg/mL |  | 
7 | CCCCn1c[n+](CC2=C(C(=O)[O-])N3C(=O)C(NC(=O)/C(=N\OC(C)(C)C(=O)O)c4csc(N)n4)C3SC2)c2ccccc21 (stereo not drawn) [T, 7-{2-(2-aminothiazole-4-yl)-2-[potassium(2,2-dimethylacetate)oxyimino]acetamide}-3-(benz-3-N-butyl-1-imidazoliomethyl)-3-cephem-4-carboxylate] | 0.39 µg/mL | 1.56 µg/mL | 3.13 µg/mL |  |  |  | 25 µg/mL | 1.56 µg/mL |  | 6.25 µg/mL |  | 3.13 µg/mL | 3.13 µg/mL | 0.78 µg/mL |  | 
8 | C=CCn1c[n+](CC2=C(C(=O)[O-])N3C(=O)C(NC(=O)/C(=N\OC(C)(C)C(=O)O)c4csc(N)n4)C3SC2)c2ccccc21 (stereo not drawn) [U, 7-{2-(2-aminothiazole-4-yl)-2-[potassium(2,2-dimethylacetate)oxyimino]acetamide}-3-[benz-3-N-(2-propenyl)-1-imidazoliomethyl]-3-cephem-4-carboxylate] | 0.2 µg/mL | 0.39 µg/mL | 0.78 µg/mL |  |  |  | 25 µg/mL | 1.56 µg/mL |  | 6.25 µg/mL |  | 6.25 µg/mL | 1.56 µg/mL | 0.39 µg/mL |  | 
9 | C=CCn1c[n+](CC2=C(C(=O)[O-])N3C(=O)C(NC(=O)/C(=N\OC)c4csc(N)n4)C3SC2)c2ccccc21 (stereo not drawn) [V, 7-[2-(2-aminothiazole-4-yl)-2-methoxyiminoacetamide}-3-[benz-3-N-(2-propenyl)-1-imidazoliomethyl]-3-cephem-4-carboxylate] | 3.13 µg/mL (≈ 5.65 µM) |  |  | 6.25 µg/mL (≈ 11.3 µM) | 3.13 µg/mL (≈ 5.65 µM) |  | > 100 µg/mL |  |  | > 100 µg/mL | 12.5 µg/mL (≈ 22.6 µM) | 3.13 µg/mL (≈ 5.65 µM) |  |  | 1.56 µg/mL (≈ 2.82 µM) | 0.78 µg/mL (≈ 1.41 µM)
10 | C=CCO/N=C(\C(=O)NC1C(=O)N2C(C(=O)[O-])=C(C[n+]3cn(CC=C)c4ccccc43)CSC12)c1csc(N)n1 (stereo not drawn) [W, 7-[2-(2-aminothiazole-4-yl)-2-(2-propenyloxyimino)acetamide]-3-[benz-3-N-(2-propeny)-1-imidazoliomethyl]-3-cephem-4-carboxylate] | 1.56 µg/mL (≈ 2.69 µM) | 3.13 µg/mL (≈ 5.4 µM) |  | 6.25 µg/mL (≈ 10.8 µM) |  |  | > 100 µg/mL |  |  | 50 µg/mL (≈ 86.3 µM) | 25 µg/mL (≈ 43.1 µM) | 1.56 µg/mL (≈ 2.69 µM) |  | 3.13 µg/mL (≈ 5.4 µM) | 6.25 µg/mL (≈ 10.8 µM) | 
11 | CC=CCn1c[n+](CC2=C(C(=O)[O-])N3C(=O)C(NC(=O)/C(=N\OC(C)(C)C(=O)O)c4csc(N)n4)C3SC2)c2ccccc21 (stereo not drawn) [X, 7-{2-(2-aminothiazole-4-yl)-2-[potassium(2,2-dimethylacetate)oxyimino]acetamide}-3-[benz-3-N-(2-butenyl)-1-imidazoliomethyl]-3-cephem-4-carboxylate] | 0.78 µg/mL | 1.56 µg/mL | 3.13 µg/mL |  |  |  | 50 µg/mL | 1.56 µg/mL |  | 12.5 µg/mL |  | 6.25 µg/mL | 1.56 µg/mL | 1.56 µg/mL |  | 
12 | CC(C)=CCn1c[n+](CC2=C(C(=O)[O-])N3C(=O)C(NC(=O)/C(=N\OC(C)(C)C(=O)O)c4csc(N)n4)C3SC2)c2ccccc21 (stereo not drawn) [Y, 7-{2-(2-aminothiazole-4-yl)-2-[potassium(2,2-dimethylacetate)oxyimino]acetamide}-3-[benz-3-N-(3-methyl-2-butenyl)-1-imidazoliomethyl]-3-cephem-4-carboxylate] | 1.56 µg/mL | 6.25 µg/mL |  | 6.25 µg/mL |  |  | > 100 µg/mL |  |  | 25 µg/mL | 12.5 µg/mL | 6.25 µg/mL |  | 3.13 µg/mL | 12.5 µg/mL | 
